Measurements taken from patent US8192962B2, “Processes for detecting toxic substances” (Daikin Industries, Ltd., priority 2001, dated 2012).

Test system: Stress protein genes
Test: DNA chip mRNA expression in yeast, stress protein genes (Table 6)
Format: cell-based, Saccharomyces cerevisiae S288C
Procedure: Yeast (Saccharomyces cerevisiae S288C (α SUC2mal mel gap2 CUP1)) were incubated at 25° C. on YPD medium (yeast extract 1%, polypepton 2%, glucose 2%). One of toxic chemical substances was added to the cells at logarithmic growth phase, and the cells were further incubated for two hours. Cells were cultured without any chemical substance in the same condition, and were used as control. Concentrations of the chemical substances were defined to inhibit the growth of the yeast but not lead to death.
After completion of the incubation, the culture was centrifuged to collect the cells. To the cells, sodium acetate buffer (50 mM sodium acetate, 10 mM EDTA, 1% SDS) was added, and the mixture was shaken at 65° C. for five minutes, followed by returning to room temperature, and obtaining the supernatant, of which the procedures were repeated two times. To the supernatant, ½ amount of a solution of phenol/chloroform was added, and the mixture was centrifuged to give a supernatant, which was added with an equal amount of chloroform, and the mixture was centrifuged to give a supernatant. To the supernatant, an equal amount of isopropanol containing 0.3 M sodium acetate was added, and the mixture was allowed to stand at room temperature for 30 minutes, after which the mixture was centrifuged to give a sediment of the whole RNAs. Seventy % ethanol was added to the sediment, and the mixture was again centrifuged to give a sediment, which was then dried and dissolved in water. mRNA was isolated from the whole RNAs as followings. In view of the fact that a poly A chain is attached to the 3′ terminus of mRNA, a polynucleotide having a poly T structure which was immobilized on the surface of latex beads was used to trap the mRNA, and then the mRNA was washed and eluted with spine column (Oligotex-dT30<Super>mRNA Purification Kit, Takara). Reverse transcription of the mRNA was conducted with a reverse transcriptase (Super Script II Reverse Transcriptase; catalogue No. 18064-014, GibcoBRL) using fluorescence-labeled nucleotides to give cDNAs that were introduced with Cy3-dUTP or Cy5-dUTP during the reverse transcription.
The labeled cDNAs were dissolved in TE buffer (10mM Tris-HCl/1 mM EDTA, pH8.0), and the solution was dropped on the DNA chip containing the whole genes of yeast (DNA Chip Research Inc. Japan) so that the cDNAs were hybridized on the DNA chip at 65° C. for over 12 hours. The fluoresces intensity of the DNA chip was read with a scanner, and the ratio relative to the fluorescence intensity resulting from the absence of chemical substance was estimated as the following, which is shown in Tables 1 to 9: […]

Oc1cc(Cl)c(Cl)cc1Cl [(6), 2,4,5-trichlorophenol]
The level of expressed mRNA in the presence of chemical substance/The level of expressed mRNA in the absence of chemical substance (yeast gene YAL005C): 1.6 | The level of expressed mRNA in the presence of chemical substance/The level of expressed mRNA in the absence of chemical substance (yeast gene YAL015C): 0.7 | The level of expressed mRNA in the presence of chemical substance/The level of expressed mRNA in the absence of chemical substance (yeast gene YBL075C): 0.8 | The level of expressed mRNA in the presence of chemical substance/The level of expressed mRNA in the absence of chemical substance (yeast gene YBL093C): 0.8 | The level of expressed mRNA in the presence of chemical substance/The level of expressed mRNA in the absence of chemical substance (yeast gene YBR044C): 1.0 | The level of expressed mRNA in the presence of chemical substance/The level of expressed mRNA in the absence of chemical substance (yeast gene YBR054W): 1.1 | The level of expressed mRNA in the presence of chemical substance/The level of expressed mRNA in the absence of chemical substance (yeast gene YBR067C): 1.1 | The level of expressed mRNA in the presence of chemical substance/The level of expressed mRNA in the absence of chemical substance (yeast gene YBR072W): 32.2 | The level of expressed mRNA in the presence of chemical substance/The level of expressed mRNA in the absence of chemical substance (yeast gene YBR126C): 2.9 | The level of expressed mRNA in the presence of chemical substance/The level of expressed mRNA in the absence of chemical substance (yeast gene YBR169C): 4.9 | The level of expressed mRNA in the presence of chemical substance/The level of expressed mRNA in the absence of chemical substance (yeast gene YCL035C): 5.1 | The level of expressed mRNA in the presence of chemical substance/The level of expressed mRNA in the absence of chemical substance (yeast gene YCR021C): 2.2 | The level of expressed mRNA in the presence of chemical substance/The level of expressed mRNA in the absence of chemical substance (yeast gene YCR060W): 3.3 | The level of expressed mRNA in the presence of chemical substance/The level of expressed mRNA in the absence of chemical substance (yeast gene YCR083W): 2.4 | The level of expressed mRNA in the presence of chemical substance/The level of expressed mRNA in the absence of chemical substance (yeast gene YDL022W): 2.1 | The level of expressed mRNA in the presence of chemical substance/The level of expressed mRNA in the absence of chemical substance (yeast gene YDL025C): 0.6 | The level of expressed mRNA in the presence of chemical substance/The level of expressed mRNA in the absence of chemical substance (yeast gene YDR033W): 6.7 | The level of expressed mRNA in the presence of chemical substance/The level of expressed mRNA in the absence of chemical substance (yeast gene YDR077W): 1.0 | The level of expressed mRNA in the presence of chemical substance/The level of expressed mRNA in the absence of chemical substance (yeast gene YDR098C): 1.1 | The level of expressed mRNA in the presence of chemical substance/The level of expressed mRNA in the absence of chemical substance (yeast gene YDR155C): 1.5 | The level of expressed mRNA in the presence of chemical substance/The level of expressed mRNA in the absence of chemical substance (yeast gene YDR258C): 2.4 | The level of expressed mRNA in the presence of chemical substance/The level of expressed mRNA in the absence of chemical substance (yeast gene YDR293C): 0.9 | The level of expressed mRNA in the presence of chemical substance/The level of expressed mRNA in the absence of chemical substance (yeast gene YDR436W): 1.1 | The level of expressed mRNA in the presence of chemical substance/The level of expressed mRNA in the absence of chemical substance (yeast gene YDR513W): 2.1 | The level of expressed mRNA in the presence of chemical substance/The level of expressed mRNA in the absence of chemical substance (yeast gene YDR519W): 1.3 | The level of expressed mRNA in the presence of chemical substance/The level of expressed mRNA in the absence of chemical substance (yeast gene YEL030W): 0.6 | The level of expressed mRNA in the presence of chemical substance/The level of expressed mRNA in the absence of chemical substance (yeast gene YEL039C): 1.5 | The level of expressed mRNA in the presence of chemical substance/The level of expressed mRNA in the absence of chemical substance (yeast gene YER042W): 1.6 | The level of expressed mRNA in the presence of chemical substance/The level of expressed mRNA in the absence of chemical substance (yeast gene YER057C): 1.6 | The level of expressed mRNA in the presence of chemical substance/The level of expressed mRNA in the absence of chemical substance (yeast gene YER103W): 1.7 | The level of expressed mRNA in the presence of chemical substance/The level of expressed mRNA in the absence of chemical substance (yeast gene YER125W): 0.7 | The level of expressed mRNA in the presence of chemical substance/The level of expressed mRNA in the absence of chemical substance (yeast gene YFL014W): 9.3 | The level of expressed mRNA in the presence of chemical substance/The level of expressed mRNA in the absence of chemical substance (yeast gene YFL016C): 1.3 | The level of expressed mRNA in the presence of chemical substance/The level of expressed mRNA in the absence of chemical substance (yeast gene YFL020C): 2.0 | The level of expressed mRNA in the presence of chemical substance/The level of expressed mRNA in the absence of chemical substance (yeast gene YFR052W): 3.2 | The level of expressed mRNA in the presence of chemical substance/The level of expressed mRNA in the absence of chemical substance (yeast gene YGL073W): 1.9 | The level of expressed mRNA in the presence of chemical substance/The level of expressed mRNA in the absence of chemical substance (yeast gene YGL115W): 1.2 | The level of expressed mRNA in the presence of chemical substance/The level of expressed mRNA in the absence of chemical substance (yeast gene YGL181W): 1.9 | The level of expressed mRNA in the presence of chemical substance/The level of expressed mRNA in the absence of chemical substance (yeast gene YGR088W): 1.3 | The level of expressed mRNA in the presence of chemical substance/The level of expressed mRNA in the absence of chemical substance (yeast gene YHL028W): 1.8 | The level of expressed mRNA in the presence of chemical substance/The level of expressed mRNA in the absence of chemical substance (yeast gene YHL046C): 0.8 | The level of expressed mRNA in the presence of chemical substance/The level of expressed mRNA in the absence of chemical substance (yeast gene YHR030C): 0.9 | The level of expressed mRNA in the presence of chemical substance/The level of expressed mRNA in the absence of chemical substance (yeast gene YHR057C): 1.3 | The level of expressed mRNA in the presence of chemical substance/The level of expressed mRNA in the absence of chemical substance (yeast gene YHR104W): 1.2
